Where “and” joins values, the source holds several entries; their conditions need not be identical. Equal entries are not always repeated.
Test system: K98450-129-R-PDC complex spheroid growth, percent test/control
Assay: Anticancer human tumor K98450-129-R-PDC patient-derived colon adenocarcinoma cell line growth inhibition [RAS]
Conditions: for viability, T/C: stronger effect = lower value; active = viability on the fitted dose curve at most 10% of control; inactive = the rest
Text: RAS pathway inhibitors in Combinations in Complex Spheroids
A high-throughput screen of multi-cell type tumor spheroids was designed to identify active combinations of RAS pathway inhibitors and targeted small molecules. Complex spheroids include a stromal component modeled by human endothelial cells (HUVEC) and fibroblasts modeled by human mesenchymal stem cells (MSCs). The concentration ranges selected for each drug and investigational agent were based upon clinically achievable concentrations if the clinical Cmax of the agent was known.
Compounds. The drugs and investigational agents: abemaciclib (NSC768073), cobimetinib (NSC768068), divarasib (GDC6063, NSC841802), docetaxel (NSC628503), GDC-1971 (RLY-1971, NSC841576), gemcitabine (NSC613327), inavolisib (NSC800729), ipatasertib (NSC767898), KB-0742 (NSC834161), MRTX-1133 (NSC836407), osimertinib (NSC779217), RMC-4630 (NSC839698), RMC-6236 (NSC851965), RMC-6291 (NSC852671), Ro-3306 (NSC812927), sapanisertib (NSC764658), SN-38 (NSC673596), staurosporine (NSC755774), SY5609 (NSC837396), and tovorafenib (DAY101, NSC766906), were obtained from the National Cancer Institute (NCI) Developmental Therapeutics Program Chemical Repository. The FDA-approved anticancer drug set is available from the NCI Developmental Therapeutics Program. […] The stock solutions were prepared in dimethyl sulfoxide (DMSO, Sigma-Aldrich, St. Louis, MO, cat. D2650) at 800-fold the tested concentration and stored at -70 degrees C prior to their use. All drugs and investigational agents were tested over a range starting from a high concentration at or near the clinical Cmax and decreasing in half-log increments. If the clinical Cmax for an agent had not been determined, the highest concentration tested was 10 microM.
Cell Culture. All cells were maintained in an incubator at 37 degrees C and 5% CO2 with 95% humidity. The PDC lines were cultured according to standard operating procedures established by the NCI PDMR. All PDCs were thawed and cultured in Matrigel-coated flasks prepared with a working solution of 1X Ham's F-12 nutrient mix, without supplementation (Invitrogen, Waltham, MA, cat. 11765054), 100 U/mL penicillin-streptomycin (Invitrogen, cat. 15140122), and 2.5% Matrigel (Corning Inc., Corning, NY, cat. 354248) for the first three passages. The 362531-283-R-J2-PDC and 782815-120-R-J1-PDC lines were cultured in 6C/Colon 1B media, which includes advanced DMEM/F-12 (Thermo Fisher Scientific, cat. 12634028), 10 mM HEPES (Thermo Fisher Scientific, cat. 15630080), 1X GlutaMAX supplement (Thermo Fisher Scientific, cat. 35050061), 0.1 mg/mL primocin (InvivoGen, San Diego, CA, cat. ant-pm-2), 10% defined fetal bovine serum, heat inactivated (HyClone Laboratories Inc., Logan, UT, cat. SH30070.03HI), 50% L-WRN conditioned media (ATCC, cat. CRL-3276), 1.25 mM N-Acetyl-L-cysteine (Sigma-Aldrich, cat. A9165), 10 mM nicotinamide (Sigma-Aldrich, cat. N0636), 1X B-27 supplement (Thermo Fisher Scientific, cat. 17504044), 1X N-2 supplement (Thermo Fisher Scientific, cat. 17502048), 50 ng/mL human EGF (Thermo Fisher Scientific, cat. PHG0311), and 10 microM Y-27632 dihydrochloride (Tocris Bioscience, cat. 1254). The K12877-001-R-J1-PDC line was cultured in 6I media, which includes all 6C/Colon 1B media plus 10 ng/mL human FGF-10 (PeproTech, cat. 100-26), 1 ng/mL human FGF-2 (PeproTech, cat. 100-18B), 1 µM prostaglandin E2 (Tocris Bioscience, cat. 2296), […] hydrocortisone (Sigma-Aldrich, cat. H4001), and […] bovine insulin (Sigma-Aldrich, cat. I6634). The K86415-001-R-J1-PDC line was cultured in 6D media, which includes all 6C/Colon 1B media components minus the L-WRN conditioned media. The 485176-168-R4-J1-PDC was cultured in PANC media, which includes all 6C/Colon 1B media plus 100 ng/mL human FGF-10 (PeproTech, cat. 100-26), 500 nM SB-431542 (Selleckchem, cat. S1067), and 10 nM gastrin (Tocris Bioscience, cat. 3006). […]
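Note: spheroids exposed to agents for seven days before the viability readout.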
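Throughout, for viability, T/C: luminescence used as a proxy for viable cell amount.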

CC(=O)OC12COC1CC(O)C1(C)C(=O)C(O)C3=C(C)C(OC(=O)C(O)C(NC(=O)OC(C)(C)C)c4ccccc4)CC(O)(C(OC(=O)c4ccccc4)C21)C3(C)C (stereo unspecified)
inactive: viability, T/C (compound 0.0316 µM) 104% [middle of 4 runs] | viability, T/C (compound 0.316 µM) 65.8% [middle of 4 runs] | viability, T/C (compound 1 µM) 50.8% [middle of 4 runs] | viability, T/C (compound 3.16 µM) 42.5% [middle of 4 runs] | viability, T/C (compound 10 µM) 43.9% [middle of 4 runs]

CC(C)NCC(C(=O)N1CCN(c2ncnc3c2C(C)CC3O)CC1)c1ccc(Cl)cc1 (stereo unspecified)
inactive: viability, T/C (compound 0.0316 µM) 103% [middle of 4 runs] | viability, T/C (compound 0.1 µM) 97.1% [middle of 4 runs] | viability, T/C (compound 0.316 µM) 104% (2×) and 111% and 88.1% | viability, T/C (compound 1 µM) 102% [middle of 4 runs] | viability, T/C (compound 3.16 µM) 104% [middle of 4 runs] | viability, T/C (compound 10 µM) 101% [middle of 4 runs]
> 10 µM: IC50 (curve of compound)

CC1(O)CCCC1n1c(=O)c(C(F)F)cc2cnc(NC3CCN(S(C)(=O)=O)CC3)nc21 (stereo unspecified)
> 10 µM: IC50 (curve of compound)
inactive: viability, T/C (compound 0.0316 µM) 102% (2×) and 99.8% and 90.2% | viability, T/C (compound 0.1 µM) 95.5% [middle of 4 runs] | viability, T/C (compound 0.316 µM) 91.1% [middle of 4 runs] | viability, T/C (compound 1 µM) 79% [middle of 4 runs] | viability, T/C (compound 3.16 µM) 79% [middle of 4 runs] | viability, T/C (compound 10 µM) 73.3% [middle of 4 runs]

CCC(CC)c1cc(NC2CCC(N)C2)n2nccc2n1 (stereo unspecified)
inactive: viability, T/C (compound 0.0316 µM) 99.1% [middle of 4 runs] | viability, T/C (compound 0.316 µM) 99.2% [middle of 4 runs] | viability, T/C (compound 1 µM) 102% (2×) and 98% and 94% | viability, T/C (compound 3.16 µM) 90.9% [middle of 4 runs] | viability, T/C (compound 10 µM) 17.7% [middle of 4 runs]
5.89 µM [middle of 4 runs]: IC50 (curve of compound)

C[C@@H](NC(=O)c1ncnc(N)c1Cl)c1ncc(C(=O)Nc2cc(C(F)(F)F)c(Cl)cn2)s1
> 10 µM: IC50 (curve of compound)
inactive: viability, T/C (compound 0.0316 µM) 110% [middle of 4 runs] | viability, T/C (compound 0.316 µM) 122% [middle of 4 runs] | viability, T/C (compound 1 µM) 126% [middle of 4 runs] | viability, T/C (compound 10 µM) 106% [middle of 4 runs]

Cc1nc(N2CCC3(CC2)COC(C)C3N)c(CO)nc1Sc1ccnc(N)c1Cl (stereo unspecified)
3.66 µM [middle of 4 runs]: IC50 (curve of compound)
inactive: viability, T/C (compound 0.0316 µM) 96.9% [middle of 4 runs] | viability, T/C (compound 0.1 µM) 92.8% [middle of 4 runs] | viability, T/C (compound 0.316 µM) 86.5% [middle of 4 runs] | viability, T/C (compound 1 µM) 77.2% [middle of 4 runs] | viability, T/C (compound 3.16 µM) 53.1% [middle of 4 runs] | viability, T/C (compound 10 µM) 28.8% [middle of 4 runs]

NC1c2ccccc2OC12CCN(c1cnc3c(N4CCCc5ncccc54)n[nH]c3n1)CC2 (stereo unspecified)
193 nM [middle of 4 runs]: IC50 (curve of compound)
inactive: viability, T/C (compound 0.0316 µM) 90.2% [middle of 4 runs] | viability, T/C (compound 0.1 µM) 67.2% [middle of 4 runs] | viability, T/C (compound 0.316 µM) 39.9% [middle of 4 runs] | viability, T/C (compound 1 µM) 25.4% [middle of 4 runs] | viability, T/C (compound 3.16 µM) 19.4% [middle of 4 runs] | viability, T/C (compound 10 µM) 25% [middle of 4 runs]

C=CC(=O)Nc1cc(Nc2nccc(-c3cn(C)c4ccccc34)n2)c(OC)cc1N(C)CCN(C)C + C#Cc1c(F)ccc2cc(O)cc(-c3ncc4c(N5CC6CCC(C5)N6)nc(OCC56CCCN5CC(F)C6)nc4c3F)c12
0.468 µM: IC50 (curve of first compound, second compound 1 µM)
0.622 µM: IC50 (curve of first compound, second compound 0.0316 µM)
0.193 µM: IC50 (curve of first compound, second compound 10 µM)
inactive: viability, T/C (second compound 0.0316 µM, first compound 0.00316 µM) 107% | viability, T/C (second compound 0.0316 µM, first compound 0.01 µM) 112% | viability, T/C (second compound 0.0316 µM, first compound 0.0316 µM) 106% | viability, T/C (second compound 0.0316 µM, first compound 0.1 µM) 100% | viability, T/C (second compound 0.0316 µM, first compound 0.316 µM) 69.4% | viability, T/C (second compound 0.0316 µM, first compound 1 µM) 36.4% | viability, T/C (second compound 0.1 µM, first compound 0.00316 µM) 107% | viability, T/C (second compound 0.1 µM, first compound 0.01 µM) 100% | viability, T/C (second compound 0.1 µM, first compound 0.0316 µM) 103% | viability, T/C (second compound 0.1 µM, first compound 0.1 µM) 101% | viability, T/C (second compound 0.1 µM, first compound 0.316 µM) 79.6% | viability, T/C (second compound 0.1 µM, first compound 1 µM) 30.9% | viability, T/C (second compound 0.316 µM, first compound 0.00316 µM) 112% | viability, T/C (second compound 0.316 µM, first compound 0.01 µM) 106% | viability, T/C (second compound 0.316 µM, first compound 0.0316 µM) 97.9% | viability, T/C (second compound 0.316 µM, first compound 0.1 µM) 95.8% | viability, T/C (second compound 0.316 µM, first compound 0.316 µM) 78.6% | viability, T/C (second compound 0.316 µM, first compound 1 µM) 26% | viability, T/C (second compound 1 µM, first compound 0.00316 µM) 105% | viability, T/C (second compound 1 µM, first compound 0.01 µM) 105% | viability, T/C (second compound 1 µM, first compound 0.0316 µM) 92.6% | viability, T/C (second compound 1 µM, first compound 0.1 µM) 95% | viability, T/C (second compound 1 µM, first compound 0.316 µM) 66.3% | viability, T/C (second compound 1 µM, first compound 1 µM) 16.6% | viability, T/C (second compound 3.16 µM, first compound 0.00316 µM) 93.7% | viability, T/C (second compound 3.16 µM, first compound 0.01 µM) 94.3% | viability, T/C (second compound 3.16 µM, first compound 0.0316 µM) 94.6% | viability, T/C (second compound 3.16 µM, first compound 0.1 µM) 89.7% | viability, T/C (second compound 3.16 µM, first compound 0.316 µM) 51.5% | viability, T/C (second compound 3.16 µM, first compound 1 µM) 11.5% | viability, T/C (second compound 10 µM, first compound 0.00316 µM) 91.9% | viability, T/C (second compound 10 µM, first compound 0.01 µM) 85.3% | viability, T/C (second compound 10 µM, first compound 0.0316 µM) 90.1% | viability, T/C (second compound 10 µM, first compound 0.1 µM) 79.3% | viability, T/C (second compound 10 µM, first compound 0.316 µM) 28% | viability, T/C (second compound 10 µM, first compound 1 µM) 10.6%
0.637 µM: IC50 (curve of first compound, second compound 0.1 µM)
0.33 µM: IC50 (curve of first compound, second compound 3.16 µM)
0.584 µM: IC50 (curve of first compound, second compound 0.316 µM)

Source: PubChem BioAssay AID2060891 (Molecular Pharmacology Branch, DTP, NCI, 2025)
